Residual activity data for 41 compounds are collected here from ChEMBL document CHEMBL3039007, “Structure-based identification of OATP1B1/3 inhibitors” (Mol Pharmacol, 2013).

Series [1] addresses T1, Solute carrier organic anion transporter family member 1B3 (Homo sapiens, UniProt Q9NPD5).
T1 sequence (Q9NPD5 whole entry): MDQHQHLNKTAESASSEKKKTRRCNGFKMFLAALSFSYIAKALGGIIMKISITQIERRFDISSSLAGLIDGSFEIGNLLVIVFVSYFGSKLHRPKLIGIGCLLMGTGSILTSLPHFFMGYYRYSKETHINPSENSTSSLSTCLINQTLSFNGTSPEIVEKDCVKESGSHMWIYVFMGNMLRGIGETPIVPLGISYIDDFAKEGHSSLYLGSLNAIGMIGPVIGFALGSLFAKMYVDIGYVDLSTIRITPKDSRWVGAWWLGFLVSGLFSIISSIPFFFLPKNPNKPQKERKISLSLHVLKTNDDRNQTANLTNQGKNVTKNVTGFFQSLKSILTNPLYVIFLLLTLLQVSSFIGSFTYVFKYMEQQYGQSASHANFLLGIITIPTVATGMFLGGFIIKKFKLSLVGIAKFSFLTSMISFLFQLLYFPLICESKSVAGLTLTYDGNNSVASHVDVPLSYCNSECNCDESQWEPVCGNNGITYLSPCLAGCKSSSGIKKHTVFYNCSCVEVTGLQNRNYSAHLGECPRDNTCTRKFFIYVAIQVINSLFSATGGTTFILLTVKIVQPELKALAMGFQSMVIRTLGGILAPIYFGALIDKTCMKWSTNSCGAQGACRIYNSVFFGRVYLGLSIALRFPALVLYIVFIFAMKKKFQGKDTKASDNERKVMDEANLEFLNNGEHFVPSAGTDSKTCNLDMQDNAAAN
The note with it: chinese hamster, cho, 10 µM.

Series [2] deals with T2, Solute carrier organic anion transporter family member 1B1 (Homo sapiens, UniProt Q9Y6L6).
T2 sequence (Q9Y6L6 whole entry): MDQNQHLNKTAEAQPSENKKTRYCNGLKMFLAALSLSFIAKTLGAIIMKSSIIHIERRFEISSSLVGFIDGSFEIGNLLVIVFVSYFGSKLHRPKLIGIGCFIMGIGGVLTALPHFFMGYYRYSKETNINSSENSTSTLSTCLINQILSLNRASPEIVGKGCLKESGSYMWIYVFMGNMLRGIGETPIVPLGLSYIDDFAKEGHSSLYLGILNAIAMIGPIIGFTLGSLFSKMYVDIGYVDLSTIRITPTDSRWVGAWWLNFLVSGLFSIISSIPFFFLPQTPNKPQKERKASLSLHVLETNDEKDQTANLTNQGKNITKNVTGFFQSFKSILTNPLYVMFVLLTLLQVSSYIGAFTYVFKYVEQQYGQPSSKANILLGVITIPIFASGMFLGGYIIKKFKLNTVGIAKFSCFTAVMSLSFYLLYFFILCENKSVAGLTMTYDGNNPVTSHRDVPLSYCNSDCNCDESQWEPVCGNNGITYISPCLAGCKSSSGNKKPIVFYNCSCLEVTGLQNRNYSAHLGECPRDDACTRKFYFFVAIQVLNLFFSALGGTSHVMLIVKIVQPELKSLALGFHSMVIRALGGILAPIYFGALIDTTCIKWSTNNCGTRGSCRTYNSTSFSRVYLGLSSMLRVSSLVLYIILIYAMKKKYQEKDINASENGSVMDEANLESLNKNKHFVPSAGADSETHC
Particulars: chinese hamster, cho, 10 µM.

Usually residual activity stands for the signal under treatment as a percentage of the control signal. Turning to `COc1cc(O)c2c(=O)cc(-c3ccc(O)cc3)oc2c1` [GENKWANIN], the residual activity in series [1] was found to be 107%; in series [2], 116.7%.

With `CC(=O)O[C@@H]1c2c(ccc3ccc(=O)oc23)OC(C)(C)[C@@H]1OC(=O)CC(C)C` [DIHYDROSAMIDIN], the residual activity is 104.1% in series [1] and 75.05% in series [2].

As to `O=C(O)CCCOc1ccc(Cl)cc1Cl`, the residual activity in series [1] worked out at 112%; in series [2], 123.3%.

As for `COc1cc2c(cc1O)C(Cc1ccc(O)cc1)N(C)CC2` (configuration not stated) [METHYL COCLAURINE], the values for the residual activity in series [1] and in series [2] were 94.46% and 96.63%, respectively.

Consider `CO[C@@]1(NC(=O)CSCC#N)C(=O)N2C(C(=O)[O-])=C(CSc3nnnn3C)CS[C@@H]21.[Na+]` [CEFMETAZOLE SODIUM], for which the residual activity in series [1] turned out to be 108.6%; in series [2], 123.3%.

For `Nc1cc(N2CCCCC2)nc(N)[n+]1[O-]` [MINOXIDIL], the residual activity in series [1] is listed as 92.39%; in series [2], 93.9%.

`O=C1C(CC[S+]([O-])c2ccccc2)C(=O)N(c2ccccc2)N1c1ccccc1` (configuration not stated) [SULFINPYRAZONE]: the residual activity was 43.93% in series [1] and 55.19% in series [2].

With `O=C1c2ccccc2C(=O)C1c1ccccc1` [PHENINDIONE], the residual activity in series [1] is 128.9%; in series [2] it was 89.42%.

For the compound `C=C(C)[C@@H]1CC=C(CO)CC1` [PERILLYL ALCOHOL], the residual activity is on record as 91.29% in series [1] and 84.39% in series [2].

In the case of `COc1cc(C)c(C(=O)Oc2cc(C)c(C(=O)O)c(O)c2C)c(O)c1C=O` [BAEOMYCESIC ACID], the residual activity in series [1] is listed as 46.77%; in series [2] it was 23.01%.

Consider `CC1CCc2cc(F)cc3c(=O)c(C(=O)O)cn1c23` (configuration not stated) [FLUMEQUINE], for which the results for the residual activity in series [1] and in series [2] were 107% and 74.99%, respectively.

Regarding `Oc1ccc([C@H]2Oc3cc(O)cc(O)c3C[C@H]2O)cc1` [EPIAFZELECHIN (2R,3R)(-)], the figures for the residual activity in series [1] and in series [2] were 26.68% and 48.25%, respectively.

Consider `OCC(O)C(O)C(O)C(O)C(O)CO` (configuration not stated) [PERSEITOL], for which the residual activity is 73.5% in series [1] and 60.19% in series [2].

Regarding `CN(N=O)C(=O)N[C@@H](C=O)[C@@H](O)[C@H](O)[C@H](O)CO` [STREPTOZOCIN], the figures for the residual activity in series [1] and in series [2] were 100.3% and 93.43%, respectively.

On to `COc1ccc(-c2coc3cc(O)cc(O)c3c2=O)cc1` [BIOCHANIN], for which the results for the residual activity in series [1] and in series [2] were 113.5% and 98.38%, respectively.

For `CCN(CC)CCOCCOC(=O)C1(c2ccccc2)CCCC1.O=C(O)CC(O)(CC(=O)O)C(=O)O` [CARBETAPENTANE CITRATE], the residual activity was determined as 97.23% in series [1] and 86.24% in series [2].

For `CC(C)=CCC1=C(O)C(=O)c2ccccc2C1=O` [LAPACHOL], the residual activity in series [1] worked out at 108.2%; in series [2], 115.5%.

Consider `CC(C)(C)NC[C@H](O)c1ccc(O)c(CO)c1.Cl` [LEVALBUTEROL HYDROCHLORIDE], for which the residual activity in series [1] is 85.66%; in series [2] it was 95.04%.

Regarding `COc1c(C(=O)O)ccc2c1CCC(C)(C)O2` [DIHYDRO-beta-TUBAIC ACID], the values for the residual activity in series [1] and in series [2] were 102.8% and 98.02%, respectively.

In the case of `CC(=O)O[C@]1(C(C)=O)CC[C@H]2[C@@H]3C[C@H](C)C4=CC(=O)CC[C@]4(C)[C@H]3CC[C@@]21C` [MEDROXYPROGESTERONE ACETATE], the residual activity in series [1] is on record as 104.4%; in series [2] it was 105.9%.

For the compound `CC(C(=O)O)c1ccc(-c2ccccc2)c(F)c1` (configuration not stated) [FLURBIPROFEN], the residual activity is listed as 98.28% in series [1] and 227% in series [2].

With `CCc1ccc2c(O)c3c(cc2c1C(=O)OC)C(=O)c1c(O)ccc(O)c1C3=O` [BISANHYDRORUTILANTINONE], the results for the residual activity in series [1] and in series [2] were 115.2% and 104.1%, respectively.

For the compound `C#C[C@]1(O)CC[C@H]2[C@@H]3CCc4cc(O)ccc4[C@H]3CC[C@@]21C` [ETHINYL ESTRADIOL], the residual activity worked out at 61.16% in series [1] and 13.12% in series [2].

Regarding `C[C@@H]1CC[C@H]2C(C)(C)[C@H]3C[C@@]12CC[C@@]3(C)O` [CEDROL], the residual activity is recorded as 107.7% in series [1] and 119.8% in series [2].

Take `CC[C@H](c1ccc(O)cc1)[C@@H](CC)c1ccc(O)cc1` [HEXESTROL]: the residual activity in series [1] came out at 43.21%; in series [2] it was 46.62%.

Consider `O=C(O[C@@H]1Cc2c(O)cc(O)cc2O[C@@H]1c1cc(O)c(O)c(O)c1)c1cc(O)c(O)c(O)c1` [EPIGALOCATECHIN GALLATE], for which the residual activity in series [1] is on record as 45.88%; in series [2], 49.04%.

With `O=c1c(O)c(-c2ccc(O)c(O)c2)oc2cc(O)cc(O)c12` [QUERCETIN], the values for the residual activity in series [1] and in series [2] were 122.6% and 47.09%, respectively.

For `C/C=C(/C)C(=O)O[C@H]1CC[C@@]2(C)[C@@H]3CC[C@H]4[C@]5(O)C[C@H](O)[C@@]6(O)[C@@H](CN7C[C@@H](C)CC[C@H]7[C@@]6(C)O)[C@]5(O)C[C@@]42O[C@]13O` [CEVADINE], the residual activity in series [1] was 84.71%; in series [2] it was 78.54%.

Regarding `O=C1c2ccccc2-c2cccc3cccc1c23` [BENZANTHRONE], the values for the residual activity in series [1] and in series [2] were 69.74% and 127.3%, respectively.

In the case of `Clc1ccc(C(c2ccc(Cl)cc2)C(Cl)(Cl)Cl)cc1` [CHLOROPHENOTHANE], the residual activity in series [1] was found to be 116.2%; in series [2], 124.5%.

For the compound `C=C[C@@](C)(O)CC[C@H]1C(=C)C[C@H](O)[C@H]2C(C)(C)CCC[C@]12C`, the residual activity in series [1] is 78.26%; in series [2], 48.6%.

As for `CN(C)CCc1c[nH]c2ccc(C[C@H]3COC(=O)N3)cc12` [ZOLMITRIPTAN], the residual activity was 102.5% in series [1] and 95.98% in series [2].

Take `COC(=O)[C@H](c1ccccc1Cl)N1CCc2sccc2C1.O=S(=O)(O)O` [CLOPIDOGREL BISULFATE]: the residual activity amounted to 96.14% in series [1] and 145.3% in series [2].

On to `O=C1C[C@@H](c2ccccc2)Oc2cc(O)cc(O)c21` [PINOCEMBRIN], for which the residual activity is given as 97.25% in series [1] and 202% in series [2].

For `CC1=C(C(=O)O)N2C(=O)[C@@H](NC(=O)[C@H](N)c3ccc(O)cc3)[C@H]2SC1` [CEFADROXIL], the residual activity in series [1] is recorded as 101.2%; in series [2], 88.52%.

With `CCCCC(CC)CN1CN(CC(CC)CCCC)CC(C)(N)C1` (configuration not stated) [HEXETIDINE], the residual activity in series [1] was found to be 102.1%; in series [2] it was 75.93%.

On to `CNC(=O)O/N=C/C(C)(C)SC` [ALDICARB], for which the residual activity in series [1] is 80.05%; in series [2], 120.5%.

Turning to `CN(C)CCOC(=O)COc1ccc(Cl)cc1.Cl` [CENTROPHENOXINE HYDROCHLORIDE], the residual activity is 88.3% in series [1] and 70.12% in series [2].

As to `CC(C)OC(=O)Nc1cccc(Cl)c1` [CHLORPROPHAM], the residual activity in series [1] was 107%; in series [2], 104.8%.

Consider `Cc1c(C)c2c(c(C)c1O)CCC(C)(CCCC(C)CCCC(C)CCCC(C)C)O2` (stereo not drawn) [alpha-TOCHOPHEROL], for which the residual activity in series [1] is 84.17%; in series [2], 85.48%.

For `CCN1C[C@]2(COC)[C@H](O)C[C@H](OC)[C@@]34[C@@H]5C[C@@]6(O)[C@H](OC(=O)c7ccccc7)[C@@H]5[C@@](OC(C)=O)([C@@H]([C@H](OC)[C@H]23)[C@@H]14)[C@@H](O)[C@@H]6OC` [ACONITINE], the results for the residual activity in series [1] and in series [2] were 85.31% and 65.77%, respectively.
